In paper PMC4876437, “Novel application of hydrophobin in medical science: a drug carrier for improving serum stability” (Scientific Reports, 2016):

Legend:
INS-1 cells = assay: cAMP accumulation measurement (HTRF); type: cell-based, rat
Protocol: For the cAMP assay, INS-1 cells (1.0 × 10^5 cells) were seeded and plated in each well of a 96-well opaque white plate. […] Subsequently, 10 μg of GLP-1 or complex was added. The assay plate was treated with 2.5 μl/well cAMP and an equal volume of anti-cAMP conjugate (Cisbio) after a 1 h incubation. The homogenous time-resolved fluorescence (HTRF) signal was read on a SpectraMax M5 (Molecular Device) microplate reader. The ratio of […] at 665 nm and 620 nm (×10,000) was calculated and plotted.

[1] = tested on: dipeptidyl peptidase IV (DPP-IV); conditions: cited from earlier work
Source text: The extremely poor serum stability renders the therapeutic administration of GLP-1 impractical; therefore, many efforts have focused on altering the pharmacokinetic properties of GLP-1 by developing a series of complexes and analogs, such as exenatide, liraglutide and albiglutide. […] In ad ...

blood glucose and HbA1c = assay: Long-term anti-diabetic activity (glucose, HbA1c) over 46 days; type: in vivo; conditions: ZDF rats, 250 μg/kg body weight every three days, glucometer
Protocol: Male ZDF rats (n = 11 per group) were treated with complex (250 μg/kg/3 days) for the entire experimental period (46 days). The control groups were injected with wild-type GLP-1 (250 μg/3 days). HbA1c levels were assessed using a DCA 200 analyzer (Bayer Diagnostics), and glucose levels were monitored during the experimental period.

insulin secretion = assay: Insulin stimulation assay after oral glucose administration; type: in vivo; conditions: Wistar rats, s.c. 100 μg GLP-1/kg 30 min before oral glucose 10 g/kg, n = 3 per group, mean ± SE
Protocol: The insulin secretion assay was performed by injecting the complex (100 μg GLP-1/kg body weight) into male Wistar rats (n = 3 per group). Wild-type GLP-1 (100 μg/kg body weight) and saline were injected subcutaneously as controls. Glucose (10 g/kg body weight, a standard dose for oral glucose administration) was orally administered 30 min after injections of the complexes. […] Blood samples were assayed for insulin levels using a rat insulin RIA kit.

blood glucose = assay: Single-dose glucoregulatory assay (glucose tolerance test); type: in vivo; conditions: Wistar rats, GLP-1 alone, glucose 2 g/kg i.p.
[2] = Stabilization (serum stability / pharmacokinetic) study: circulating free GLP-1 in rats by GLP-1 (7-37) ELISA; type: in vivo; conditions: Wistar rats, s.c., 500 μg GLP-1/kg, n = 6 per group
Protocol: The stabilities of wild-type hydrophobin/GLP-1 and hydrophobin E24K/GLP-1 complexes were investigated to determine whether the complex protects GLP-1 against protease degradation. Two complexes, hydrophobin/GLP-1 (pH 7.0, molar ratio of 1:10) and hydrophobin E24K/GLP (pH 4.0, molar ratio of 1:10) were administered subcutaneously to male Wistar rats (500 μg GLP-1/kg body weight, n = 6 per group), and blood samples from the rats were directly drawn into P700*, K2EDTA tubes (BD Biosciences, Franklin Lakes, NJ) by venipuncture at 0.5, 1, 4, 12, 24, 48, 72 and 96 h. Serum samples (200 μl) were immediately analyzed using a native GLP-1 (7-37) ELISA kit after being centrifuged for 20 min at 13,000 rpm. The amount of free GLP-1 measured in this assay was considered an indicator of the serum serum stability of the complex.

[3] = target: wild-type hydrophobin protein (HGFI)
[4] = target: hydrophobin E24K (mutated at the 24th residue)

glucagon-like peptide-1 [GLP-1]
peak cellular cAMP level (INS-1 cells; INS-1 cells 1.0 × 10^5, 500 μM IBMX, 10 μg GLP-1, at 2 min, HTRF, mean ± SE): 17.03 ± 0.94 pmol/10^5 cells
time at which cAMP declined to baseline (INS-1 cells; INS-1 cells, HTRF-cAMP kit): 10 min
time of cAMP peak (INS-1 cells; INS-1 cells, HTRF-cAMP kit): 2 min
renal clearance (time) ([1]; in vivo): less than 10 min
lifetime in vivo ([1]; native GLP-1, in vivo, inactivation by DPP-IV): < 2 min
serum stability of GLP-1 ([1]; rapid degradation by DPP-IV): 3 to 5 min
long-lasting glucose regulatory effect (blood glucose and HbA1c): failed to produce a similar glucose regulatory effect
insulin level at 5 min after oral glucose (insulin secretion): 827.09 ± 37.77 pmol/L
blood glucose in single-dose glucose tolerance test (blood glucose): remained at high levels
time after administration at which circulating GLP-1 was undetectable [2]: 4 h

glucagon-like peptide-1 (GLP-1)
AUC of free GLP-1 in the serum of Wistar rats within 96 h after subcutaneous injection of the complex, fold over GLP-1 alone (GLP-1 (7-37) ELISA) [3]: 6.3 fold
AUC of free GLP-1 in the serum of Wistar rats within 96 h after subcutaneous injection of the complex, fold over GLP-1 alone (GLP-1 (7-37) ELISA) [4]: 3 fold
